This note sets out measurements from patent publication US6608086B2, “Dihydropyridines and new uses thereof” (Synaptic Pharmaceutical Corporation, priority 1993, dated 2003).

pKi: −log10 of the molar value. Counter-ions that a name gives are not always drawn.

The target in the first series is T1, α2B receptor (Homo sapiens, UniProt P18089).
T1 construct: host or cells: LM(tk-) cells, line L-NGC-α2B
T1 sequence (P18089 1-450): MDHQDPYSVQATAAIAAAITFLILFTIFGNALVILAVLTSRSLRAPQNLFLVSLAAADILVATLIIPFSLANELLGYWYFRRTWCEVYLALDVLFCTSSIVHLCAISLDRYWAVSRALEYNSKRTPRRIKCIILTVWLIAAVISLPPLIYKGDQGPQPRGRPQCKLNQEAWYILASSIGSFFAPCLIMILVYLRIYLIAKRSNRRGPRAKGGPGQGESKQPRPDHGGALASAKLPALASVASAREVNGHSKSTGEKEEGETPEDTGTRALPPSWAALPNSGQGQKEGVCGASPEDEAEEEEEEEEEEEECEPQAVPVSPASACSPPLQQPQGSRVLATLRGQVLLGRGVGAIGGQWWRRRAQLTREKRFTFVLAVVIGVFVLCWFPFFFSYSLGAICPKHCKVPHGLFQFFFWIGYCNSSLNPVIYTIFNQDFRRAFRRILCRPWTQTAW
The series is described as follows: Competition binding, [3H]rauwolscine, human α2B receptor. As to conditions: [3H]rauwolscine, LM(tk-) cell line L-NGC-α2B; SEM and n in lines below; read-out: pKi alpha-2 2b (converted). Summed up: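 Lysates of LM(tk−) cells stably expressing each α2 subtype were suspended in 25 mM glycylglycine buffer (pH 7.6 at room temperature). Equilibrium competition binding used 0.5 nM [3H]rauwolscine, with nonspecific binding defined by 10 μM phentolamine; bound radioligand was separated by GF/B filtration.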
For `COC(=O)C1=C(C)NC(C)=C(C(=O)NCCCN2CCC(c3ccccc3)(c3ccccc3)CC2)C1c1ccc([N+](=O)[O-])c(C)c1` (centres unmarked) [Example 28], the Ki is 1660 nM.

The same series, now with this note: [3H]rauwolscine, human α2B receptor, LM(tk−) cells; read-out: pKi alpha-2 2b (converted).
Turning to `CCC1=C(C(=O)OCCC#N)C(c2ccc([N+](=O)[O-])cc2)C(C(=O)NCCCN2CCC(c3ccccc3)(c3ccccc3)CC2)=C(COC)N1` (centres unmarked) [Example 135], the Ki was 389 nM.

For `CC1=C(C(=O)NCCCN2CCC(c3ccccc3)(c3ccccc3)CC2)C(c2ccc([N+](=O)[O-])cc2)C(C(=O)OCCC#N)=C(C)N1` (centres unmarked) [Example 160], the Ki was 148 nM.

In the case of `CCC1=C(C(N)=O)C(c2ccc([N+](=O)[O-])cc2)C(C(=O)NCCCN2CCN(c3ccccc3OC)CC2)=C(CC)N1` (centres unmarked) [Example 125, 5-Carboxamido-2,6-diethyl-1,4-dihydro-3-(N-{3-[4-(2-methoxyphenyl)piperazin-1-yl]propyl})carboxamido-4-(4-nitrophenyl)pyridine], the Ki is 186 nM.

The same series, now with this note: pKi alpha-2 2b.
As a reminder, the pKi is the negative decadic logarithm of the Ki, by convention in mol/L. Read a high pKi as a small Ki. The compound `COC(=O)C1=C(C)NC(c2ccccc2)=C(C(=O)NCCCN2CCC(c3ccccc3)(c3ccccc3)CC2)C1c1ccc([N+](=O)[O-])cc1` (centres unmarked) [Example 78, 1,4-Dihydro-5-methoxycarbonyl-6-methyl-4-(4-nitro)phenyl-2-phenyl-3-(N-(3-(4,4-diphenylpiperidin-1-yl)propyl))carboxamidopyridine hydrochloride hydrate] had a pKi of 6.26.

Take `COC(=O)C1=C(C)NC(C)=C(C(=O)N(C)CCCN2CCC(c3ccccc3)(c3ccccc3)CC2)C1c1ccc([N+](=O)[O-])cc1` (centres unmarked) [Example 46, hydrochloride hemihydrate]: the pKi was 6.31.

The compound `COC(=O)C1=C(C)NC(C)=C(C(=O)NCCN2CCC(c3ccccc3)(c3ccccc3)CC2)C1c1ccc([N+](=O)[O-])cc1` (centres unmarked) [Example 52, 1,4-Dihydro-3-methoxycarbonyl-2,6-dimethyl-4-(4-nitrophenyl)-5-{N-[2-(4,4-diphenylpiperidin-1-yl)ethyl]}carboxamidopyridine hydrochloride hemihydrate] showed a pKi of 6.10. Against the preceding compound, the pKi is 0.21 log units lower.

Compound `CCC1=C(C(N)=O)C(c2ccc([N+](=O)[O-])cc2)C(C(=O)NCCCN2CCC3(CC2)C(=O)NCN3c2ccccc2)=C(CC)N1` (centres unmarked) [Example 105, 5-Carboxamido-2,6-diethyl-1,4-dihydro-4-(4-nitrophenyl)-3-{N-[3-(1-phenyl-4-oxo-1,3,8-triazaspiro[4.3]decan-8-yl)propyl]}carboxamidopyridine hydrochloride hydrate] gave a pKi of 5.66.

Compound `CC1=C(C#N)C(c2ccc([N+](=O)[O-])cc2)C(C(=O)NCCCN2CCC(c3ccccc3)(c3ccccc3)CC2)=C(C)N1` (centres unmarked) [Example 37] had a pKi of 5.97.

As to `CCC1=C(C(N)=O)C(c2ccc([N+](=O)[O-])cc2)C(C(=O)NCCCN2CCC(c3ccc(OC)cc3)(c3ccc(OC)cc3)CC2)=C(CC)N1` (centres unmarked) [Example 103, 5-Carboxamido-2,6-diethyl-1,4-dihydro-3-{N-[3-(4,4-bis-(4-methoxyphenyl)piperidin-1-yl)propyl]}carboxamido}-4-(4-nitrophenyl)pyridine hydrochloride], the pKi was 6.13.

In turn, `COC(=O)C1=C(C)NC(C)=C(C(=O)NCCCN2CCC(c3ccccc3)(c3ccccc3)CC2)C1c1ccc2ccccc2c1` (centres unmarked) [Example 22] had a pKi of 6.04. This pKi and that of the compound before are within 0.2 log units of each other.

Regarding `CCOC(=O)C1=C(CC(=O)NCCCN2CCC(c3ccccc3)(c3ccccc3)CC2)NC(C)=C(C(=O)OC)C1c1ccc([N+](=O)[O-])cc1` (centres unmarked) [Example 89, 3-Ethoxycarbonyl-1,4-dihydro-5-methoxycarbonyl-6-methyl-4-(4-nitro)phenyl-2-(N-(3-(4,4,-diphenylpiperidin-1-yl)propyl)carboxamido)methylpyridine, fumarate salt], the pKi is 5.71.

In the case of `COC(=O)C1=C(C)N(C)C(C)=C(C(=O)OCCCN2CCC(c3ccccc3)(c3ccccc3)CC2)C1c1ccc([N+](=O)[O-])cc1` (centres unmarked) [Example 92, 1,4-Dihydro-5-methoxycarbonyl-1,2,6-trimethyl-4-(4-nitrophenyl)-3-[3-(4,4-diphenylpiperidin-1-yl)propoxy]carbonylpyridine hydrochloride hydrate], the pKi is 6.14.

Consider `CCC1=C(C(=O)NCCCN2CCC(c3ccccc3)(c3ccccc3)CC2)C(c2ccc(N)cc2)C(C(=O)OC)=C(C)N1` (centres unmarked) [Example 114, 4-(4-Aminophenyl)-2-ethyl-1,4-dihydro-5-methoxycarbonyl-6-methyl-3-(N-(3-(4,4-diphenylpiperidin-1-yl)propyl)carboxamido)-pyridine], for which the pKi is 6.33.

Staying with this series, now noted: pKi alpha-2 2b, [3H]rauwolscine, LM(tk-) cell line L-NGC-α2B; SEM and n in lines below.
In turn, `CCC1=C(C(=O)NCCCN2CCC(c3ccccc3)(c3ccccc3)CC2)C(c2ccc([N+](=O)[O-])cc2)C(C(=O)OCc2ccccc2)=C(C)N1` (centres unmarked) [Example 4, 5-Benzyloxycarbonyl-2-ethyl-1,4-dihydro-6-methyl-4-(4-nitrophenyl)-3-(N-(3-(4,4-diphenylpiperidin-1-yl)propyl)carboxamido) pyridine, Hydrochloride Salt, Hydrate] gave a pKi of 5.99.

`CC1=C(C(N)=O)C(c2ccc([N+](=O)[O-])cc2)C(C(=O)NCCN2CCC(c3ccccc3)(c3ccccc3)CC2)=C(C)N1` (centres unmarked) [Example 54, 5-Carboxamide-1,4-dihydro-2,6-dimethyl-4-(4-nitrophenyl)-3-{N-[2-(4,4-diphenylpiperidin-1-yl)ethyl]}carboxamidopyridine hydrochloride hydrate] gave a pKi of 6.52.

`COC(=O)C1=C(C)NC(c2ccoc2)=C(C(=O)NCCCN2CCC(c3ccccc3)(c3ccccc3)CC2)C1c1ccc([N+](=O)[O-])cc1` (centres unmarked) [Example 43, 2-(Furan-3-yl)-, 4-dihydro-5-methoxycarbonyl-6-methyl-4-(4-nitrophenyl)-3-(N-(3-(4,4-diphenylpiperidin-1-yl)propyl)carboxamidopyridine, hydrochloride salt] had a pKi of 6.36. The pKi values of the last two compounds are within 0.2 log units of each other.

Still in this series, the particulars now being: pKi alpha-2 2b, [3H]rauwolscine, human α2B receptor, LM(tk−) cells.
Turning to `CC1=C(C(=O)NCCCN2CCC(c3ccccc3)(c3ccccc3)CC2)C(c2ccc([N+](=O)[O-])cc2)C(C(=O)NC(C)C)=C(C)N1` (centres unmarked) [Example 156, 1,4-Dihydro-3-(N-isopropyl) carboxamido-2,6-dimethyl-4-(4-nitrophenyl)-5-{N-[3-(^414-diphenylpiperidin-1-yl)propyl]}carboxamidopyridine], the pKi was 6.25.

Regarding `CCC1=C(C(=O)NCCCN2CCC(c3ccccc3)(c3ccccc3)CC2)C(c2ccc([N+](=O)[O-])cc2)C(C(=O)NC)=C(COCCN=[N+]=[N-])N1` (centres unmarked) [Example 151, 2-((2-Azidoethyl)oxy)methyl-6-ethyl-1,4-dihydro-3-(N-methyl)carboxamido-4-(4-nitro)phenyl-5-(N-(3-(4,4-diphenylpiperidin-1-yl)propyl))carboxamidopyridine], the pKi was 6.27. The pKi values of the last two compounds are within 0.2 log units of each other.

In turn, `COc1ccc(C2(c3ccccc3)CCN(CCCNC(=O)C3=C(C)NC(C)=C(C(N)=O)C3c3ccc([N+](=O)[O-])cc3)CC2)cc1` (centres unmarked) [Example 98, 5-Carboxamido-1,4-dihydro-3-{N-[3-(4-(4-methoxyphenyl)-4-phenylpiperidin-1-yl)propyl]}carboxamido-2,6-dimethyl-4-(4-nitrophenyl)pyridine hydrochloride] had a pKi of 6.23.

`CCC1=C(C(N)=O)C(c2ccc([N+](=O)[O-])cc2)C(C(=O)NCCCN2CCC(C#N)(c3ccccc3)CC2)=C(CC)N1` (single isomer, unassigned; (-)) [(−)-102] showed a pKi of 6.23.

On to `CCC1=C(C(N)=O)C(c2ccc([N+](=O)[O-])cc2)C(C(=O)NCCCN2CCC(C)(c3ccccc3)CC2)=C(CC)N1` (centres unmarked) [Example 106, 5-Carboxamido-2,6-diethyl-1,4-dihydro-3-{N-[3-(4-Methyl-4-phenylpiperidin-1-yl)propyl]}carboxamido-4-(4-nitrophenyl)pyridine hydrochloride hydrate], for which the pKi is 6.43.

As for `CCC1=C(C(N)=O)C(c2ccc([N+](=O)[O-])cc2)C(C(=O)NCCCN2CCC(O)(c3ccccc3)CC2)=C(CC)N1` (centres unmarked) [Example 100, 5-Carboxamido-2,6-diethyl-1,4-dihydro-3-{N-(3-(4-hydroxy-4-phenylpiperidin-1-yl)propyl]}carboxamido-4-(4-nitrophenyl)pyridine hydrochloride hydrate], the negative-log Ki (pKi) was 5.54.

Compound `CCC1=C(C(N)=O)C(c2ccc([N+](=O)[O-])cc2)C(C(=O)NCCCN2CCC(C#N)(c3ccccc3)CC2)=C(CC)N1` (racemic) [(±)-102, 5-Carboxamido-3-{N-[(4-cyano-4-phenylpiperidin-1-ly)propyl]carboxamido-2,6-diethyl-1,4-dihydro-4-(4-nitrophenyl)pyridine hydrochloride hydrate] gave a pKi of 5.99.

As for `CCC1=C(C(N)=O)C(c2ccc(S(C)(=O)=O)cc2)C(C(=O)NCCCN2CCC(c3ccccc3)(c3ccccc3)CC2)=C(CC)N1` (centres unmarked) [Example 116, 5-Carboxamido-2,6-diethyl-1,4-dihydro-4-(4-methanesulfonylphenyl)-3-(N-(3-(4,4-diphenylpiperidin-1-yl)propyl)carboxamido)-pyridine], the negative-log Ki (pKi) was 6.43. This pKi lies 0.44 log units higher than the previous one.

System in a further series: not given
Experiment: not given
Settings: not given
A word on the melting point: it is the temperature, or range, at which the solid turns liquid. In turn, `CC1=C(C(=O)NCCCN2CCC(c3ccccc3)(c3ccccc3)CC2)C(c2ccc([N+](=O)[O-])cc2)C(C(=O)NC(C)C)=C(C)N1` (centres unmarked) [Example 156, 1,4-Dihydro-3-(N-isopropyl) carboxamido-2,6-dimethyl-4-(4-nitrophenyl)-5-{N-[3-(^414-diphenylpiperidin-1-yl)propyl]}carboxamidopyridine] gave a melting point of 123 to 125 °C.
